According to US12030903B2, “Antiviral compounds” (Gilead Sciences, Inc., priority 2020, dated 2024):

How the values were obtained:
[1] = HEp-2 CC50 (cytotoxicity in uninfected HEp-2 cells); type: cell-based; details: human, CellTiter Glo
Experimental: Instead, an uninfected cell mixture at the same density is added at 20 uL/well to plates containing prediluted compounds, also at 100 nL/sample. Assay plates are then incubated for 4 days followed by a cell viability test using the same CellTiter Glo reagent addition and measurement of luminescent readouts. Untreated cell and cells treated at 2 μM puromycin (Sigma, St. Louis, MO) serve as 100% and 0% cell viability control, respectively.

RSV strain A2 = test: RSV HEp-2 EC50 (infectious cytopathic cell protection assay); type: cell-based, RSV strain A2; HEp-2 cells; details: human respiratory syncytial virus, HEp-2, 96 h, read-out: RSV Hep-2 EC50
Experimental: Example 86. RSV HEp-2 EC50
Antiviral activity against RSV is determined using an infectious cytopathic cell protection assay in HEp-2 cells. In this assay, compounds inhibiting viral infection and/or replication produce a cytoprotective effect against the virus-induced cell killing that can be quantified using a cell viability reagent. The techniques used here are novel adaptations of methods described in published literature (Chapman et al., Antimicrob Agents Chemother. 2007, 51(9):3346-53.)
HEp-2 cells are obtained from ATCC (Manassas, VI) and maintained in MEM media supplemented with 10% fetal bovine serum and penicillin/streptomycin. Cells are passaged twice a week and kept at subconfluent stage. Commercial stock of RSV strain A2 (Advanced Biotechnologies, Columbia, MD) is titered before compound testing to determine the appropriate dilution of the virus stock that generates desirable cytopathic effect in HEp-2 cells.
For antiviral tests, HEp-2 cells are grown in large cell culture flasks to near confluency but not fully so. The compounds to be tested are prediluted in DMSO in 384-well compound dilution plates, either in an 8 or 40 sample per plate standardized dose response format. 3-fold serial dilution increments of each test compound are prepared in the plates and test samples are transferred via acoustic transfer apparatus (Echo, Labcyte) at 100 nL per well into cell culture assay 384-well plates. Each compound dilution is transferred in single or quadruplicate samples into dry assay plates, which are stored until assay is ready to go. The positive and negative controls are laid out in opposite on ends of the plate in vertical blocks (1 column).
Subsequently, an infectious mixture is prepared using an appropriate dilution of virus stock previously determined by titration with cells at a density of 50,000/mL and 20 uL/well is added to test plates w/compounds via automation (uFlow, Biotek). Each plate includes negative and positive controls (16 replicates each) to create 0% and 100% virus inhibition standards, respectively. Following the infection with RSV, testing plates are incubated for 4 days in a 37° C. cell culture incubator. After the incubation, a cell viability reagent, Cell TiterGlo (Promega, Madison, WI) is added to the assay plates, which are incubated briefly, and a luminescent readout is measured (Envision, Perkin Elmer) in all the assay plates. The RSV-induced cytopathic effect, percentage inhibition, is determined from the levels of remaining cell viability. […] Various potent anti-RSV tool compounds are used as positive controls for antiviral activity.

[2] = Huh-7 CC50 (CellTiter Glo viability); type: cell-based, Human; details: human, Huh7 hepatocarcinoma cells
Experimental: Human hepatocarcinoma 7 (Huh7) cells were maintained in 10% FCS-containing complete DMEM. On day of assay, cells were trypsinized with 0.1% Trypsin-EDTA, washed and cultured in triplicate at 1-2×10^4 cells/well in 96-well plates with compounds dispensed at graded doses (Hewlett-Packard D300 Digital Dispenser). All wells were normalized to 0.25% DMSO. After 48 hours, CellTiter Glo (Promega) was added and incubated for 10 minutes at room temp before reading on a luminometer. % viability curves were calculated against no compound and no cell control wells. CC50 values were determined using Prism Graphpad software.

[3] = tested on: Dengue serotype 2 New Guinea C (NGC) strain; test: DENV-2 Huh-7 EC50 (qPCR of viral RNA in infected Huh7 cells); type: cell-based; details: Dengue virus, DENV2, Huh-7, Huh7 cells infected with Dengue serotype 2 NGC, MOI=0.1, 48 hours
Experimental: Huh7 (Human hepatocarcinoma 7) cells were maintained in 10% FCS-containing DMEM complete media. On the day of the assay, cells were trypsinized (0.1% Trypsin-EDTA), washed and infected for 2 hours in serum-free DMEM with Dengue serotype 2 New Guinea C (NGC) strain at MOI=0.1 with gentle agitation at 37° C. After 2 hours, cells were washed with serum-free media and suspended in 10% FCS-containing DMEM (Gibco, supplemented with sodium pyruvate, NEAA, Penicillin-Streptomycin). 10^5 cells were plated in triplicate in 96-well plates with compounds dispensed at graded doses (Hewlett-Packard D300 Digital Dispenser). All wells were normalized to 0.25% DMSO. At 48 hours, cells were washed with 1× PBS and all supernatants removed. Total RNA was extracted using RNEasy 96 plates (Qiagen) and used to generate first-strand cDNA using XLT cDNA 5× Supermix (QuantaBio). cDNA was used as a template in a Taqman qPCR duplex reaction specific to DENV2 viral and GAPDH gene expression. EC50 values were determined using Prism Graphpad software, with normalization to a positive control and no compound negative control wells.

## CO[C@@H](C)COC(=O)[C@H](C)NP(=O)(OC[C@@]1(CF)O[C@@H](c2ccc3c(N)ncnn23)[C@H](O)[C@@H]1O)Oc1ccccc1 (stereo partly drawn) [Example 30, (S)-2-methoxypropyl ((((2R,3S,4R,5S)-5-(4-aminopyrrolo[2,1-f][1,2,4]triazin-7-yl)-2-(fluoromethyl)-3,4-dihydroxytetrahydrofuran-2-yl)methoxy)(phenoxy)phosphoryl)-L-alaninate]
[1]
  CC50 at 4 days: > 100 µM
RSV strain A2
  EC50: 4.13 µM

## CCOC(=O)[C@@H](NP(=O)(OC[C@@]1(CF)O[C@@H](c2ccc3c(N)ncnn23)[C@H](O)[C@@H]1O)Oc1ccccc1)C(C)C (stereo partly drawn) [Example 69, ethyl ((((2R,3S,4R,5S)-5-(4-aminopyrrolo[2,1-f][1,2,4]triazin-7-yl)-2-(fluoromethyl)-3,4-dihydroxytetrahydrofuran-2-yl)methoxy)(phenoxy)phosphoryl)-L-valinate]
[2]
  CC50 at 48 h: > 25 µM
[1]
  CC50 at 4 days: > 50 µM
[3]
  EC50: > 25 µM
RSV strain A2
  EC50: > 50 µM

## CCOC(=O)[C@H](C)NP(=O)(OC[C@@]1(CF)O[C@@H](c2ccc3c(N)ncnn23)[C@H](O)[C@@H]1O)Oc1ccc(C(C)(C)C)cc1 (mixture of isomers) [Example 47, ethyl ((((2R,3S,4R,5S)-5-(4-aminopyrrolo[2,1-f][1,2,4]triazin-7-yl)-2-(fluoromethyl)-3,4-dihydroxytetrahydrofuran-2-yl)methoxy)(4-(tert-butyl)phenoxy)phosphoryl)-L-alaninate]
[2]
  CC50 at 48 h: 21.4 µM
[1]
  CC50 at 4 days: 65.9 µM
[3]
  EC50: 0.65 µM
RSV strain A2
  EC50: 0.389 µM

## CCOC(=O)[C@H](C)NP(=O)(OC[C@@]1(CF)O[C@@H](c2ccc3c(N)ncnn23)[C@H](O)[C@@H]1O)Oc1cccc2ccccc12 (stereo partly drawn) [Example 44, ethyl ((((2R,3S,4R,5S)-5-(4-aminopyrrolo[2,1-f][1,2,4]triazin-7-yl)-2-(fluoromethyl)-3,4-dihydroxytetrahydrofuran-2-yl)methoxy)(naphthalen-1-yloxy)phosphoryl)-L-alaninate]
[2]
  CC50 at 48 h: 17.1 µM
[1]
  CC50 at 4 days: 26.5 µM
[3]
  EC50: 0.191 µM
RSV strain A2
  EC50: 0.148 µM

## CC(=O)O[C@H]1[C@H](c2ccc3c(N)ncnn23)O[C@](CF)(CO[P@@](=O)(N[C@@H](C)C(=O)OC(C)C)Oc2ccccc2)[C@H]1OC(C)=O [Example 20, (2R,3S,4S,5S)-5-(4-aminopyrrolo[2,1-f][1,2,4]triazin-7-yl)-2-(fluoromethyl)-2-((((S)-(((S)-1-isopropoxy-1-oxopropan-2-yl)amino)(phenoxy)phosphoryl)oxy)methyl) tetrahydrofuran-3,4-diyl diacetate]
[2]
  CC50 at 48 h: > 25 µM
[1]
  CC50 at 4 days: > 100 µM
[3]
  EC50: 2.57 µM
RSV strain A2
  EC50: 3.18 µM

## C[C@H](NP(=O)(OC[C@@]1(CF)O[C@@H](c2ccc3c(N)ncnn23)[C@H](O)[C@@H]1O)Oc1ccccc1)C(=O)OC1CCOCC1 (stereo partly drawn) [Example 64, tetrahydro-2H-pyran-4-yl ((((2R,3S,4R,5S)-5-(4-aminopyrrolo[2,1-f][1,2,4]triazin-7-yl)-2-(fluoromethyl)-3,4-dihydroxytetrahydrofuran-2-yl)methoxy)(phenoxy)phosphoryl)-L-alaninate]
[2]
  CC50 at 48 h: > 25 µM
[3]
  EC50: 2 µM

## CCC(CC)COC(=O)[C@H](C)NP(=O)(OC[C@@]1(CCl)O[C@@H](c2ccc3c(N)ncnn23)[C@H](O)[C@@H]1O)Oc1ccccc1 (stereo partly drawn) [Comp. Ex. 1, 2-ethylbutyl ((((2R,3S,4R,5S)-5-(4-aminopyrrolo[2,1-f][1,2,4]triazin-7-yl)-2-(chloromethyl)-3,4-dihydroxytetrahydrofuran-2-yl)methoxy)(phenoxy)phosphoryl)-L-alaninate, reference compound]
[3]
  EC50: 2.33 µM

## C[C@H](NP(=O)(OC[C@@]1(CF)O[C@@H](c2ccc3c(N)ncnn23)[C@H](O)[C@@H]1O)Oc1ccccc1)C(=O)OCC(C)(C)O (stereo partly drawn) [Example 26, 2-hydroxy-2-methylpropyl ((((2R,3S,4R,5S)-5-(4-aminopyrrolo[2,1-f][1,2,4]triazin-7-yl)-2-(fluoromethyl)-3,4-dihydroxytetrahydrofuran-2-yl)methoxy)(phenoxy)phosphoryl)-L-alaninate]
[2]
  CC50 at 48 h: > 25 µM
[1]
  CC50 at 4 days: > 100 µM
[3]
  EC50: > 24 µM
RSV strain A2
  EC50: 39.3 µM

## CC(C)C(=O)O[C@H]1[C@H](c2ccc3c(N)ncnn23)O[C@](CF)(CO[P@@](=O)(N[C@@H](C)C(=O)OC2COC2)Oc2ccccc2)[C@H]1OC(=O)C(C)C (single isomer, unassigned) [Example 73]
[2]
  CC50 at 48 h: 9.34 µM
[3]
  EC50: 0.302 µM

## CCC(=O)O[C@H]1[C@H](c2ccc3c(N)ncnn23)O[C@](CF)(CO[P@@](=O)(N[C@@H](C)C(=O)OCC(CC)CC)Oc2ccccc2)[C@H]1OC(=O)CC (single isomer, unassigned) [Example 61]
[2]
  CC50 at 48 h: 15 µM
[1]
  CC50 at 4 days: 19.1 µM
[3]
  EC50: 0.568 µM
RSV strain A2
  EC50: 0.855 µM

## CCC(CC)COC(=O)[C@H](C)N[P@](=O)(OC[C@@]1(CF)O[C@@H](c2ccc3c(N)ncnn23)[C@H](OC(=O)C(C)C)[C@@H]1OC(=O)C(C)C)Oc1ccccc1 (single isomer, unassigned) [Example 62]
[2]
  CC50 at 48 h: 8.09 µM
[3]
  EC50: 0.662 µM
RSV strain A2
  EC50: 10.1 µM

## C[C@H](N[P@](=O)(OC[C@@]1(CF)O[C@@H](c2ccc3c(N)ncnn23)[C@H](O)[C@@H]1O)Oc1ccccc1)C(=O)OC1COC1 [Example 72, oxetan-3-yl ((S)-(((2R,3S,4R,5S)-5-(4-aminopyrrolo[2,1-f][1,2,4]triazin-7-yl)-2-(fluoromethyl)-3,4-dihydroxytetrahydrofuran-2-yl)methoxy)(phenoxy)phosphoryl)-L-alaninate]
[2]
  CC50 at 48 h: > 25 µM
[1]
  CC50 at 4 days: > 50 µM
[3]
  EC50: 12.4 µM
RSV strain A2
  EC50: 15.6 µM

## CO[C@H](C)COC(=O)[C@H](C)NP(=O)(OC[C@@]1(CF)O[C@@H](c2ccc3c(N)ncnn23)[C@H](O)[C@@H]1O)Oc1ccccc1 (stereo partly drawn) [Example 39, (R)-2-methoxypropyl ((((2R,3S,4R,5S)-5-(4-aminopyrrolo[2,1-f][1,2,4]triazin-7-yl)-2-(fluoromethyl)-3,4-dihydroxytetrahydrofuran-2-yl)methoxy)(phenoxy)phosphoryl)-L-alaninate]
[1]
  CC50 at 4 days: > 100 µM
RSV strain A2
  EC50: 2.47 µM

## CCC(CC)COC(=O)[C@H](C)N[P@](=O)(OC[C@@]1(CF)O[C@@H](c2ccc3c(NC(=O)c4ccccc4)ncnn23)[C@H](O)[C@@H]1O)Oc1ccccc1 [Example 75, 2-ethylbutyl ((S)-(((2R,3S,4R,5S)-5-(4-benzamidopyrrolo[2,1-f][1,2,4]triazin-7-yl)-2-(fluoromethyl)-3,4-dihydroxytetrahydrofuran-2-yl)methoxy)(phenoxy)phosphoryl)-L-alaninate]
[3]
  EC50: 0.175 µM
